Tests used:
[1] = 298.15 K; 101.33 kPa; Liquid
[2] = excess molar enthalpy (molar enthalpy of mixing); xn = mol fraction of the nth substance listed; conditions: 298.15 K, 101.3 kPa, Liquid, Flow calorimetry

ClCCc1ccccc1 [(2-chloroethyl)benzene]
Conditions | mass density [kg/m3]
[1] | 1066.91

ClCCc1ccccc1 [(2-chloroethyl)benzene] + CCCCc1ccccc1
[2]
Conditions | excess molar enthalpy [kcal/mol]
x1 = 0.1063 | 0.0238
x1 = 0.1295 | 0.028
x1 = 0.1655 | 0.0343
x1 = 0.2293 | 0.0443
x1 = 0.3085 | 0.052
x1 = 0.373 | 0.0564
x1 = 0.4424 | 0.0604
x1 = 0.4716 | 0.0607
x1 = 0.5434 | 0.061
x1 = 0.6134 | 0.0592
x1 = 0.7041 | 0.054
x1 = 0.7604 | 0.0477
x1 = 0.8264 | 0.0382
x1 = 0.8639 | 0.0315
x1 = 0.9225 | 0.0195

ClCCc1ccccc1 [(2-chloroethyl)benzene] + CCCc1ccccc1
[2]
Conditions | excess molar enthalpy [kcal/mol]
x1 = 0.1173 | 0.0173
x1 = 0.1375 | 0.0187
x1 = 0.1662 | 0.0221
x1 = 0.2099 | 0.0266
x1 = 0.285 | 0.033
x1 = 0.347 | 0.0364
x1 = 0.4147 | 0.0393
x1 = 0.4436 | 0.0405
x1 = 0.5152 | 0.0411
x1 = 0.5863 | 0.0404
x1 = 0.6145 | 0.0388
x1 = 0.6801 | 0.0369
x1 = 0.7392 | 0.0319
x1 = 0.8096 | 0.0264
x1 = 0.85 | 0.0222
x1 = 0.914 | 0.0138

ClCCc1ccccc1 [(2-chloroethyl)benzene] + CCc1ccccc1
[2]
Conditions | excess molar enthalpy [kcal/mol]
x1 = 0.105 | 0.00798
x1 = 0.19 | 0.012
x1 = 0.2603 | 0.0148
x1 = 0.3194 | 0.0181
x1 = 0.3849 | 0.0191
x1 = 0.4841 | 0.0202
x1 = 0.5847 | 0.0193
x1 = 0.6524 | 0.0184
x1 = 0.7379 | 0.0159
x1 = 0.7897 | 0.0144
x1 = 0.8825 | 0.00832
x1 = 0.9037 | 0.00641

ClCCc1ccccc1 [(2-chloroethyl)benzene] + Cc1ccccc1
[2]
Conditions | excess molar enthalpy [kcal/mol]
x1 = 0.075 | -7.17e-05
x1 = 0.092 | 0
x1 = 0.1686 | 0.000191
x1 = 0.2332 | 0.000502
x1 = 0.2885 | 0.000645
x1 = 0.3782 | 0.0011
x1 = 0.4478 | 0.00131
x1 = 0.5195 | 0.00167
x1 = 0.5488 | 0.00177
x1 = 0.6186 | 0.00189
x1 = 0.6838 | 0.00184
x1 = 0.7643 | 0.00174
x1 = 0.8122 | 0.00163
x1 = 0.8439 | 0.00146
x1 = 0.8902 | 0.00115
x1 = 0.9068 | 0.00098

ClCCc1ccccc1 [(2-chloroethyl)benzene] + c1ccccc1
[2]
Conditions | excess molar enthalpy [kcal/mol]
x1 = 0.1016 | 0.00739
x1 = 0.145 | 0.00896
x1 = 0.2028 | 0.0105
x1 = 0.3115 | 0.0114
x1 = 0.4042 | 0.0112
x1 = 0.5044 | 0.00999
x1 = 0.5757 | 0.00856
x1 = 0.6706 | 0.00686
x1 = 0.7308 | 0.00581
x1 = 0.8028 | 0.00471
x1 = 0.8444 | 0.00354

ClCCCc1ccccc1 [(3-chloropropyl)benzene]
Conditions | mass density [kg/m3]
[1] | 1041.84

ClCCCc1ccccc1 [(3-chloropropyl)benzene] + CCCCc1ccccc1
[2]
Conditions | excess molar enthalpy [kcal/mol]
x1 = 0.1167 | 0.00734
x1 = 0.209 | 0.0142
x1 = 0.2605 | 0.0167
x1 = 0.3458 | 0.0197
x1 = 0.4134 | 0.0216
x1 = 0.5138 | 0.0227
x1 = 0.5849 | 0.0223
x1 = 0.6132 | 0.0214
x1 = 0.6789 | 0.0193
x1 = 0.7381 | 0.0172
x1 = 0.8087 | 0.0137
x1 = 0.9136 | 0.0075

ClCCCc1ccccc1 [(3-chloropropyl)benzene] + CCCc1ccccc1
[2]
Conditions | excess molar enthalpy [kcal/mol]
x1 = 0.0863 | 0.000884
x1 = 0.136 | 0.00158
x1 = 0.191 | 0.0022
x1 = 0.2394 | 0.00277
x1 = 0.3207 | 0.00327
x1 = 0.3863 | 0.00392
x1 = 0.4145 | 0.00411
x1 = 0.4856 | 0.00445
x1 = 0.5573 | 0.00466
x1 = 0.5861 | 0.00464
x1 = 0.6538 | 0.00464
x1 = 0.7157 | 0.00423
x1 = 0.7391 | 0.00428
x1 = 0.7906 | 0.00378
x1 = 0.8343 | 0.00311
x1 = 0.9042 | 0.00215
x1 = 0.9189 | 0.00191

ClCCCc1ccccc1 [(3-chloropropyl)benzene] + CCc1ccccc1
[2]
Conditions | excess molar enthalpy [kcal/mol]
x1 = 0.0766 | -0.00471
x1 = 0.1214 | -0.00691
x1 = 0.1717 | -0.00891
x1 = 0.2372 | -0.0103
x1 = 0.2931 | -0.0111
x1 = 0.3835 | -0.012
x1 = 0.4534 | -0.012
x1 = 0.5251 | -0.0117
x1 = 0.5544 | -0.0114
x1 = 0.6239 | -0.0103
x1 = 0.7133 | -0.00832
x1 = 0.7684 | -0.00719
x1 = 0.8327 | -0.00519
x1 = 0.8924 | -0.00335

ClCCCc1ccccc1 [(3-chloropropyl)benzene] + Cc1ccccc1
[2]
Conditions | excess molar enthalpy [kcal/mol]
x1 = 0.1072 | -0.0125
x1 = 0.1526 | -0.0165
x1 = 0.1936 | -0.0195
x1 = 0.2648 | -0.0232
x1 = 0.3244 | -0.0253
x1 = 0.3507 | -0.0253
x1 = 0.4187 | -0.0272
x1 = 0.4899 | -0.0259
x1 = 0.5193 | -0.0255
x1 = 0.5903 | -0.0243
x1 = 0.6576 | -0.0218
x1 = 0.6836 | -0.0205
x1 = 0.7423 | -0.018
x1 = 0.8121 | -0.0136
x1 = 0.8781 | -0.00882

Reference: the NIST ThermoML archive (doi:10.1021/je7002447)
